# Tests used:
# [1] = target: Tyrosine-protein kinase HCK (Homo sapiens, UniProt P08631); test: Inhibition of Hck (unknown origin)
# [2] = target: Tyrosine-protein kinase ABL1 (Homo sapiens, UniProt P00519); test: Inhibition of c-Abl (unknown origin)
# [3] = target: Proto-oncogene tyrosine-protein kinase Src (Homo sapiens, UniProt P12931, C277S/C483S); test: Inhibition of c-Src C277S, C483S, […] mutant (unknown origin)
Ki [1],Ki [2],Ki [3],Compound
> 1250 µM,> 1250 µM,–,C=CC(=O)N1CCCC1c1ccco1 (stereo not drawn)
–,–,0.2 µM,O=C(CCS)Nc1cccc(Nc2nccc(Nc3cc(C4CC4)[nH]n3)n2)c1

# Source: ChEMBL document CHEMBL3616418, “Discovery of Bivalent Kinase Inhibitors via Enzyme-Templated Fragment Elaboration” (ACS Med Chem Lett, 2015)
